Consider 20 compounds from patent US9527832B2, “Substituted condensed pyrimidine compounds” (GRÜNENTHAL GMBH, priority 2013, dated 2016).

The assay has as its target T1, human PDE4B1 (Homo sapiens, UniProt Q07343).
T1 construct: host or cells: Sf9 cells
In words: cAMP HTRF assay to determine the activity of hPDE4B1. As to conditions: for inhibition at 1 µM: Percentage inhibition of PDE4B at 1 μM test concentration; for IC50: dose response measurements with eight concentrations, reported as ranges, read-out: IC50. Type of assay: biochemical. In short, it runs like this: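 Sf9-expressed recombinant human PDE4B1 (4.8 U) in Tris-HCl/MgCl2/DTT/Tween 20 buffer pH 7.8, with cAMP at 40 nM final, 30 min at room temperature. Reaction stopped with IBMX 1 mM; remaining cAMP detected by HTRF (665/620 nm ratio). IC50 from eight-point dose-response, n=2.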

T1 sequence (Q07343 whole entry): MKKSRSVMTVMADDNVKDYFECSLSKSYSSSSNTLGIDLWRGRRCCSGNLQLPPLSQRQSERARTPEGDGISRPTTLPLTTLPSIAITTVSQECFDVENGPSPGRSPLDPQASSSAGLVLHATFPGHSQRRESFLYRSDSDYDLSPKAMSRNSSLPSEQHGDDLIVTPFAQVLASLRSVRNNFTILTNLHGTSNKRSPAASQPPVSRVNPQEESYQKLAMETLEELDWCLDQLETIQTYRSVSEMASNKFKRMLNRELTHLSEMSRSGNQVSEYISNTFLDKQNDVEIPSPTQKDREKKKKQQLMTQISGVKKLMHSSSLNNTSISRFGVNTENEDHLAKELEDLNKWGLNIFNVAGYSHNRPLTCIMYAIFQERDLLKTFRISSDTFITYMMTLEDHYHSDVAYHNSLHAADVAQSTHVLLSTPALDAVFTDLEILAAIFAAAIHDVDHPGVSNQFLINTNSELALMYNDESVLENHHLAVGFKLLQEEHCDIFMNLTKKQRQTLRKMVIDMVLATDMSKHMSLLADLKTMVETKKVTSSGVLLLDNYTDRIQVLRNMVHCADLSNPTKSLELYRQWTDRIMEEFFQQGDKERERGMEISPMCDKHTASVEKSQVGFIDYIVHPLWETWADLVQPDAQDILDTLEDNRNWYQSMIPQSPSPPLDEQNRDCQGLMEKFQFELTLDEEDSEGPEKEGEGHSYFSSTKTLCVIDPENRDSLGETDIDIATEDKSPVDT

`CN(C)C(=O)COc1ccc2ccn(-c3nc(-c4ccc(Cl)s4)nc4c3C[S+]([O-])C4)c2c1` (stereo not shown) [Compound No. 2-73, 2-((1-(2-(5-Chlorothiophen-2-yl)-6-oxido-5,7-dihydrothieno[3,4-d]pyrimidin-4-yl)-1H-indol-6-yl)oxy)-N,N-dimethylacetamide]: the inhibition at 1 µM worked out at 116% and the IC50 is < 100 nM.

`CN(C)C(=O)COc1ccc2c(c1)N(c1nc(-c3ccccc3)nc3c1C[S+]([O-])C3)CC2` (stereo not shown) [2-93, N,N-Dimethyl-2-[[1-(6-oxo-2-phenyl-5,7-dihydro-thieno[3,4-d]pyrimidin-4-yl)-2,3-dihydro-1H-indol-6-yl]oxy]-acetamide]: the inhibition at 1 µM is 121% and the IC50 is < 100 nM.

For the compound `CN(C)C(=O)COc1ccc2c(c1)N(c1nc(-c3ccncc3)nc3c1CS(=O)(=O)C3)CC2` [Compound No. 2-132, 2-((1-(6,6-Dioxido-2-(pyridin-4-yl)-5,7-dihydrothieno[3,4-d]pyrimidin-4-yl)indolin-6-yl)oxy)-N,N-dimethylacetamide], the inhibition at 1 µM was 91% and the half-inhibitory concentration (IC50) is < 100 nM.

On to `O=C(COc1ccc2c(c1)N(c1nc(-c3ccc(Cl)s3)nc3c1CCC3)CC2)N1CCC1` [Compound No. 2-127, 1-(Azetidin-1-yl)-2-((1-(2-(5-chlorothiophen-2-yl)-6,7-dihydro-5H-cyclopenta[d]pyrimidin-4-yl)indolin-6-yl)oxy)ethanone], for which the inhibition at 1 µM stood at 43%.

Turning to `CN1CCN(C(=O)COc2ccc3c(c2)N(c2nc(-c4ccc(Cl)s4)nc4c2CCC4)CC3)CC1` [Compound No. 2-129, 2-((1-(2-(5-Chlorothiophen-2-yl)-6,7-dihydro-5H-cyclopenta[d]pyrimidin-4-yl)indolin-6-yl)oxy)-1-(4-methylpiperazin-1-yl)ethanone], the inhibition at 1 µM is 48%.

On to `COc1ccc(-c2nc3c(c(N4CCc5cc(CC(=O)O)ccc54)n2)CSC3)cc1Cl` [Compound No. 1-5, 2-(1-(2-(3-Chloro-4-methoxyphenyl)-5,7-dihydrothieno[3,4-d]pyrimidin-4-yl)indolin-5-yl)acetic acid], for which the inhibition at 1 µM turned out to be 98% and the IC50 was < 100 nM.

Turning to `CN(C)C(=O)COc1ccc2c(c1)N(c1nc(-c3ccoc3)nc3c1C[S+]([O-])C3)CC2` (stereo not shown) [2-102, 2-[[1-[2-(Furan-3-yl)-6-oxo-5,7-dihydro-thieno[3,4-d]pyrimidin-4-yl]-2,3-dihydro-1H-indol-6-yl]oxy]-N,N-dimethyl-acetamide], the inhibition at 1 µM is 110% and the half-inhibitory concentration (IC50) was < 100 nM.

Consider `O=C(COc1ccc2c(c1)N(c1nc(-c3ccc(Cl)s3)nc3c1C[S+]([O-])C3)CC2)N1CCCC1` (stereo not shown) [Compound No. 2-116, 2-((1-(2-(5-Chlorothiophen-2-yl)-6-oxido-5,7-dihydrothieno[3,4-d]pyrimidin-4-yl)indolin-6-yl)oxy)-1-(pyrrolidin-1-yl)ethanone], for which the inhibition at 1 µM was found to be 121%.

On to `O=C(O)c1ccc2c(c1)ncn2-c1nc(-c2ccc(Cl)s2)nc2c1CCC2` (single isomer, unassigned) [Compound No. 1-63, 1-(2-(5-Chlorothiophen-2-yl)-6,7-dihydro-5H-cyclopenta[d]pyrimidin-4-yl)-1H-benzo[d]imidazole-5-carboxylic acid], for which the inhibition at 1 µM turned out to be 35%.

On to `CN(C)C(=O)COc1ccc2c(c1)N(c1nc(-c3cccc(F)c3)nc3c1C[S+]([O-])C3)CC2` (stereo not shown) [2-24, 2-[[1-[2-(3-Fluorophenyl)-6-oxo-5,7-dihydro-thieno[3,4-d]pyrimidin-4-yl]-2,3-dihydro-1H-indol-6-yl]oxy]-N,N-dimethyl-acetamide], for which the inhibition at 1 µM was 115% and the IC50 was < 100 nM.

As to `CNC(=O)COc1ccc2c(c1)N(c1nc(-c3ccc(Cl)s3)nc3c1CCC3)CC2` [Compound No. 2-70, 2-((1-(2-(5-Chlorothiophen-2-yl)-6,7-dihydro-5H-cyclopenta[d]pyrimidin-4-yl)indolin-6-yl)oxy)-N-methylacetamide], the inhibition at 1 µM is 23%.

In the case of `CN(C)C(=O)COc1ccc2c(c1)N(c1nc(-c3cccc(C#N)c3)nc3c1C[S+]([O-])C3)CC2` (stereo not shown) [2-98, 2-[[1-[2-(3-Cyano-phenyl)-6-oxo-5,7-dihydro-thieno[3,4-d]pyrimidin-4-yl]-2,3-dihydro-1H-indol-6-yl]oxy]-N,N-dimethyl-acetamide], the inhibition at 1 µM amounted to 98% and the IC50 is < 100 nM.

Consider `O=C(O)Cc1ccc2c(cnn2-c2nc(-c3ccc(Cl)s3)nc3c2CCC3)c1` [Compound No. 1-61, 2-(1-(2-(5-Chlorothiophen-2-yl)-6,7-dihydro-5H-cyclopenta[d]-pyrimidin-4-yl)-1H-indazol-5-yl)acetic acid], for which the inhibition at 1 µM amounted to 82% and the half-inhibitory concentration (IC50) was in the range of 100 to 1000 nM.

Consider `O=C(COc1ccc2c(c1)N(c1nc(-c3ccncc3)nc3c1CS(=O)(=O)C3)CC2)N1CCCC1` [Compound No. 2-130, 2-((1-(6,6-Dioxido-2-(pyridin-4-yl)-5,7-dihydrothieno[3,4-d]pyrimidin-4-yl)indolin-6-yl)oxy)-1-(pyrrolidin-1-yl)ethanone], for which the inhibition at 1 µM was 87% and the IC50 is < 100 nM.

On to `COC(=O)Cc1ccc2c(c1)CCN2c1nc(-c2ccc(Cl)s2)nc2c1CS(=O)(=O)C2` [Compound No. 1-78, Methyl 2-(1-(2-(5-chlorothiophen-2-yl)-6,6-dioxido-5,7-dihydrothieno[3,4-d]pyrimidin-4-yl)indolin-5-yl)acetate], for which the inhibition at 1 µM amounted to 25%.

As for `COc1cc(F)ccc1-c1nc2c(c(N3CCc4ccc(OCC(=O)N(C)C)cc43)n1)C[S+]([O-])C2` (stereo not shown) [2-112, 2-[[1-[2-(4-Fluoro-2-methoxy-phenyl)-6-oxo-5,7-dihydro-thieno[3,4-d]pyrimidin-4-yl]-2,3-dihydro-1H-indol-6-yl]oxy]-N,N-dimethyl-acetamide], the inhibition at 1 µM amounted to 64% and the IC50 was 100 to 1000 nM.

As for `CN(C)C(=O)COc1ccc2c(c1)N(c1nc(-c3ccc(S(C)(=O)=O)cc3)nc3c1C[S+]([O-])C3)CC2` (stereo not shown) [2-106, N,N-Dimethyl-2-[[1-[2-(4-methylsulfonyl-phenyl)-6-oxo-5,7-dihydro-thieno[3,4-d]pyrimidin-4-yl]-2,3-dihydro-1H-indol-6-yl]oxy]-acetamide], the inhibition at 1 µM is 104% and the IC50 was < 100 nM.

Turning to `COc1ccc(-c2nc3c(c(N4CCc5cc(CC(=O)O)ccc54)n2)C[S+]([O-])C3)cc1Cl` (stereo not shown) [Compound No. 1-8, 2-(1-(2-(3-Chloro-4-methoxyphenyl)-6-oxido-5,7-dihydrothieno[3,4-d]pyrimidin-4-yl)indolin-5-yl)acetic acid], the inhibition at 1 µM was 102% and the IC50 was < 100 nM.

Turning to `COc1cccc(-c2nc3c(c(N4CCc5ccc(OCC(=O)N(C)C)cc54)n2)C[S+]([O-])C3)c1` (stereo not shown) [2-91, 2-[[1-[2-(3-Methoxyphenyl)-6-oxo-5,7-dihydro-thieno[3,4-d]pyrimidin-4-yl]-2,3-dihydro-1H-indol-6-yl]oxy]-N,N-dimethyl-acetamide], the inhibition at 1 µM came out at 117% and the IC50 was < 100 nM.

On to `O=C(COc1ccc2c(c1)N(c1nc(-c3ccc(Cl)s3)nc3c1CS(=O)(=O)C3)CC2)N1CCCC1` [Compound No. 2-126, 2-((1-(2-(5-Chlorothiophen-2-yl)-6,6-dioxido-5,7-dihydrothieno[3,4-d]pyrimidin-4-yl)indolin-6-yl)oxy)-1-(pyrrolidin-1-yl)ethanone], for which the inhibition at 1 µM is 104% and the IC50 was < 100 nM.
